Laboratory results taken from patent US20230104578A1, “ANTI-ADRENOMEDULLIN (ADM) ANTIBODY OR ANTI-ADM ANTIBODY FRAGMENT OR ANTI-ADM NON-IG SCAFFOLD FOR USE IN THERAPY OR PREVENTION OF SHOCK” (ADRENOMED AG, priority 2020, published 2023).

Key:
[1] = tested on: patients with septic shock; experiment: AdrenOSS-2 phase II clinical trial in septic shock with elevated adrenomedullin; format: in vivo, human
From the text: AdrenOSS-2 is a double-blind, placebo-controlled, randomized, multicenter, proof of concept and dose-finding phase II clinical trial to investigate the safety, tolerability and efficacy of the N-terminal ADM antibody named Adrecizumab in patients with septic shock and elevated adrenomedullin (Geven et al. BMJ Open 2019;9:e024475). In total, 301 patients with septic shock and bio-ADM concentration >70 pg/mL were randomized (2:1:1) to treatment with a single intravenous infusion over approximately 1 hour with either placebo (n=152), adrecizumab 2 ng/kg (n=72) or adrecizumab 4 ng/kg (n=77). All-cause mortality within 28 (90) days after inclusion was 25.8% (34.8%). Mean age was 68.4 years and 61% were male. For the per protocol analysis, n=294 patients remained eligible, and 14-day all-cause mortality rate was 18.5%.
In patients treated with Adrecizumab (both doses combined, per protocol population), a trend to lower short term mortality (14 days post admission) was observed compared to placebo (Hazard ratio (HR) 0.701 [0.408-1.21], p=0.100) (FIG. 8).
No such interaction was detected which in other words means, that the beneficial treatment effect was detectable for all patients independent of their pre-dose bio-ADM concentration.
This is further illustrated in Kaplan Meier Plots, where the patient populations were separated by their pre-dose bio-ADM concentration (below/above bio-ADM median) (see FIG. 11a and FIG. 11b).

endotoxemic rats = details: pre-treatment; cited from earlier work
[2] = tested on: mice with CLP-induced sepsis; details: pre-treatment; cited from earlier work

Adrecizumab: humanized version of an N-terminal anti-ADM antibody; heavy chain SEQ ID NO: 32, light chain SEQ ID NO: 33
HR, 14-day mortality vs placebo ([1]; DPP3 above 50 ng/mL, n=44): 1.69
HR, 14-day mortality vs placebo ([1]; pre-dose DPP3 < 50 ng/mL, n=244): 0.426
HR, 14-day mortality vs placebo ([1]; pre-dose DPP3 < 40, n=227): 0.385
HR, 14-day mortality vs placebo ([1]; pre-dose DPP3 < 60, n=254): 0.449
HR, 14-day mortality vs placebo ([1]; pre-dose DPP3 < 70, n=261): 0.546
HR, 14-day mortality vs placebo ([1]; pre-dose DPP3 < 90, n=273): 0.606
renal vascular leakage (endotoxemic rats): attenuated renal vascular leakage
renal vascular leakage [2]: attenuated renal vascular leakage
